ChEMBL document CHEMBL4346704, “Novel symmetric bis-benzimidazoles: Synthesis, DNA/RNA binding and antitrypanosomal activity” (Eur J Med Chem, 2019)
Active and inactive are the calls of the source. The calls are words filed in the database; no cut-off is given here.

How the values were obtained:
Trypanosoma brucei = assay: Antitrypanosomal activity against Trypanosoma brucei 221 incubated for 48 hrs by resazurin based fluorescence assay; type: functional, organism-based; details: Trypanosoma brucei, 221, 48 h
[1] = Ratio of compound concentration to polynucleotide phosphate concentration for binding affinity to polyA-polyU dsRNA (unknown origin); type: nucleic-acid assay
Calf thymus DNA [2] = assay: Binding affinity to calf thymus DNA assessed as conformational change by circular dichroism analysis; type: nucleic-acid assay; details: Bos taurus
[3] = test system: Poly(dA-dU)oligonucleotide; assay: Binding affinity to polyA-polyU dsRNA (unknown origin) assessed as change in melting temperature at 0.3 ratio of compound to RNA by spectrophotometric analysis; type: nucleic-acid assay
Calf thymus DNA [4] = assay: Binding affinity to calf thymus DNA assessed as change in melting temperature at compound to calf thymus DNA polynucleotide ratio of 0.5 by spectrophotometric analysis; type: nucleic-acid assay; details: Bos taurus
Calf thymus DNA [5] = assay: Binding affinity to calf thymus DNA assessed as change in melting temperature at compound to calf thymus DNA polynucleotide ratio of 0.3 by spectrophotometric analysis; type: nucleic-acid assay; details: Bos taurus
[6] = test system: Poly(dA-dU)oligonucleotide; assay: Binding affinity to polyA-polyU dsRNA (unknown origin) assessed as change in melting temperature at 0.5 ratio of compound to RNA by spectrophotometric analysis; type: nucleic-acid assay
Calf thymus DNA [7] = assay: Binding affinity to calf thymus DNA assessed as change in melting temperature at compound to calf thymus DNA polynucleotide ratio of 0.1 by spectrophotometric analysis; type: nucleic-acid assay; details: Bos taurus
Calf thymus DNA [8] = assay: Ratio of compound concentration to polynucleotide phosphate concentration for binding affinity to calf thymus DNA; type: nucleic-acid assay; details: Bos taurus
Calf thymus DNA [9] = assay: Binding affinity to calf thymus DNA assessed as hypochromic effect by UV-vis spectrophotometric method relative to control; type: nucleic-acid assay; parameters: concentration or dose not given beside the values; details: Bos taurus
[10] = Binding affinity to polyA-polyU dsRNA (unknown origin) assessed as change in melting temperature at 0.1 ratio of compound to RNA by spectrophotometric analysis; type: nucleic-acid assay
[11] = Binding affinity to polyA-polyU dsRNA (unknown origin) assessed as hypochromic effect by UV-vis spectrophotometric method relative to control; type: nucleic-acid assay; parameters: concentration or dose not given beside the values
[12] = test system: Poly(dA-dU)oligonucleotide; assay: Binding affinity to polyA-polyU dsRNA (unknown origin) assessed as binding constant by UV-vis spectrophotometric method; type: nucleic-acid assay
Calf thymus DNA [13] = assay: Binding affinity to calf thymus DNA by UV-vis spectrophotometric method; type: nucleic-acid assay; details: Bos taurus
[14] = test system: Poly(dA-dU)oligonucleotide; assay: Binding affinity to polyA-polyU dsRNA (unknown origin) assessed as conformational change by circular dichroism analysis; type: nucleic-acid assay
L6 = assay: Cytotoxicity against rat L6 cells incubated for 6 days by resazurin based fluorescence assay; type: cell-based; details: L6, 144 h

SMILES	IC50 (Trypanosoma brucei)	IC90 (Trypanosoma brucei)	Ratio [1]	Activity (Calf thymus DNA [2])	ΔTm [3]	ΔTm (Calf thymus DNA [4])	ΔTm (Calf thymus DNA [5])	ΔTm [6]	ΔTm (Calf thymus DNA [7])	Ratio (Calf thymus DNA [8])	Activity (Calf thymus DNA [9])	ΔTm [10]	Activity [11]	log Ks [12]	log Ks (Calf thymus DNA [13])	Activity [14]	IC50 (L6)
c1cc(-c2ccc(OCc3cn(Cc4ccc(-c5nc6cc(C7=NCCN7)ccc6[nH]5)o4)nn3)cc2)ccc1OCc1cn(Cc2ccc(-c3nc4cc(C5=NCCN5)ccc4[nH]3)o2)nn1	> 10 µM	–	–	Active	0 °C	–	2.6 °C	–	–	–	9%	–	8%	–	–	Active	–
CC(C)NC(=N)c1ccc2[nH]c(-c3ccc(Cn4cc(COCc5cn(Cc6ccc(-c7nc8cc(C(=N)NC(C)C)ccc8[nH]7)o6)nn5)nn4)o3)nc2c1	7.9 µM	10.8 µM	0.3	Active	2 °C	11.1 °C	9.7 °C	1.6 °C	8.1 °C	0.67	21%	1.3 °C	13%	6.16	5.68	–	–
c1ccc2[nH]c(-c3ccc(Cn4cc(COCc5cn(Cc6ccc(-c7nc8ccccc8[nH]7)o6)nn5)nn4)o3)nc2c1	> 15 µM	–	0.31	inactive	0 °C	1.1 °C	0.7 °C	0.6 °C	0.6 °C	0.29	36%	0.6 °C	41%	5.76	6.22	–	–
CC(C)NC(=N)c1ccc2[nH]c(-c3ccc(Cn4cc(COc5ccc(-c6ccc(OCc7cn(Cc8ccc(-c9nc%10cc(C(=N)NC(C)C)ccc%10[nH]9)o8)nn7)cc6)cc5)nn4)o3)nc2c1	> 10 µM	–	–	Active	0 °C	–	2.1 °C	–	–	–	8%	–	< 5%	–	–	Active	–
Fc1ccc2[nH]c(-c3ccc(Cn4cc(COCc5cn(Cc6ccc(-c7nc8cc(F)ccc8[nH]7)o6)nn5)nn4)o3)nc2c1	7.9 µM	> 25 µM	0.35	inactive	1 °C	0 °C	0.5 °C	1 °C	0 °C	0.47	35%	1 °C	51%	6.43	5.93	–	–

More lines, main results first:

IC50 (Trypanosoma brucei)	IC90 (Trypanosoma brucei)	Ratio [1]	Activity (Calf thymus DNA [2])	ΔTm [3]	ΔTm (Calf thymus DNA [4])	ΔTm (Calf thymus DNA [5])	ΔTm [6]	ΔTm (Calf thymus DNA [7])	Ratio (Calf thymus DNA [8])	Activity (Calf thymus DNA [9])	ΔTm [10]	Activity [11]	log Ks [12]	log Ks (Calf thymus DNA [13])	Activity [14]	SMILES	IC50 (L6)
6.4 µM	11.8 µM	0.19	inactive	0.6 °C	2.6 °C	1.2 °C	0.6 °C	0.7 °C	0.21	35%	1 °C	52%	5.12	5.21	–	Clc1ccc2[nH]c(-c3ccc(Cn4cc(COCc5cn(Cc6ccc(-c7nc8cc(Cl)ccc8[nH]7)o6)nn5)nn4)o3)nc2c1	–
3 µM	7.2 µM	0.5	inactive	0 °C	2.5 °C	4.1 °C	0 °C	2.1 °C	0.05	27%	0 °C	34%	< 4	7.04	–	Clc1ccc2[nH]c(-c3ccc(Cn4cc(CCCc5cn(Cc6ccc(-c7nc8cc(Cl)ccc8[nH]7)o6)nn5)nn4)o3)nc2c1	> 300 µM
3.4 µM	6.7 µM	–	inactive	0 °C	3.4 °C	1.2 °C	0 °C	0.5 °C	0.17	25%	0 °C	11%	–	5.92	–	Fc1ccc2[nH]c(-c3ccc(Cn4cc(COc5ccc(OCc6cn(Cc7ccc(-c8nc9cc(F)ccc9[nH]8)o7)nn6)cc5)nn4)o3)nc2c1	219 µM
> 15 µM	–	0.13	inactive	0 °C	3.2 °C	1.2 °C	0 °C	2.6 °C	0.19	45%	0 °C	10%	6.54	6.55	–	c1ccc2[nH]c(-c3ccc(Cn4cc(CCCc5cn(Cc6ccc(-c7nc8ccccc8[nH]7)o6)nn5)nn4)o3)nc2c1	–
